Assay results as given in PubChem BioAssay AID2060511 (Molecular Pharmacology Branch, DTP, NCI, 2025).

Test system: 422866-222-R5-J1-PDC spheroids with HUVEC/MSC, viability
Test: Anticancer human tumor 422866-222-R5-J1-PDC patient-derived pancreatic adenocarcinoma cell line growth inhibition [GQUAD]
Details: for IC50: curve of first compound; for viability, T/C: stronger effect = lower value; active = viability on the fitted dose curve at most 10% of control; inactive = the rest
Summary of the method: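 Viability of tumor cells grown as complex spheroids with endothelial and stromal cells, exposed to drug combinations. Top concentration at or near clinical Cmax (else 10 microM), diluted in half-log increments.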

[1] = second compound 0.0316 µM, first compound 0.0316 µM
[2] = second compound 0.0316 µM, first compound 0.316 µM
[3] = second compound 0.1 µM, first compound 0.0316 µM
[4] = second compound 0.1 µM, first compound 0.316 µM
[5] = second compound 0.316 µM, first compound 0.0316 µM
[6] = second compound 0.316 µM, first compound 0.316 µM
[7] = second compound 1 µM, first compound 0.0316 µM
[8] = second compound 1 µM, first compound 0.316 µM
[9] = second compound 3.16 µM, first compound 0.0316 µM
[10] = second compound 3.16 µM, first compound 0.316 µM
[11] = second compound 10 µM, first compound 0.0316 µM
[12] = second compound 10 µM, first compound 0.316 µM
[13] = second compound 0.0316 µM, first compound 0.1 µM
[14] = second compound 0.0316 µM, first compound 1 µM
[15] = second compound 0.0316 µM, first compound 3.16 µM
[16] = second compound 0.0316 µM, first compound 10 µM
[17] = second compound 0.1 µM, first compound 0.1 µM
[18] = second compound 0.1 µM, first compound 1 µM
[19] = second compound 0.1 µM, first compound 3.16 µM
[20] = second compound 0.1 µM, first compound 10 µM
[21] = second compound 0.316 µM, first compound 0.1 µM
[22] = second compound 0.316 µM, first compound 1 µM
[23] = second compound 0.316 µM, first compound 3.16 µM
[24] = second compound 0.316 µM, first compound 10 µM
[25] = second compound 1 µM, first compound 0.1 µM
[26] = second compound 1 µM, first compound 1 µM
[27] = second compound 1 µM, first compound 3.16 µM
[28] = second compound 1 µM, first compound 10 µM
[29] = second compound 3.16 µM, first compound 0.1 µM
[30] = second compound 3.16 µM, first compound 1 µM
[31] = second compound 3.16 µM, first compound 3.16 µM
[32] = second compound 3.16 µM, first compound 10 µM
[33] = second compound 10 µM, first compound 0.1 µM
[34] = second compound 10 µM, first compound 1 µM
[35] = second compound 10 µM, first compound 3.16 µM
[36] = second compound 10 µM, first compound 10 µM
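Note: spheroids exposed to compounds for seven days before reading.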
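Throughout, for viability, T/C: percent viability relative to DMSO vehicle control taken as 100%.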

CC[C@@]1(O)C(=O)OCc2c1cc1n(c2=O)Cc2cc3c(CN(C)C)c(O)ccc3nc2-1 + CN(C)c1ccc(Nc2c3ccc(NC(=O)CCN4CCCC4)cc3nc3cc(NC(=O)CCN4CCCC4)ccc23)cc1
0.175 µM: IC50 (second compound 10 µM)
0.0939 µM: IC50 (second compound 0.0316 µM)
> 0.316 µM: IC50 (second compound 0.1 µM)
0.0853 µM: IC50 (second compound 3.16 µM)
0.135 µM: IC50 (second compound 1 µM)
inactive: viability, T/C (second compound 0.0316 µM, first compound 0.000999 µM) 99.1% | viability, T/C (second compound 0.0316 µM, first compound 0.00316 µM) 95.8% | viability, T/C (second compound 0.0316 µM, first compound 0.00999 µM) 96% | viability, T/C [1] 76% | viability, T/C (second compound 0.0316 µM, first compound 0.0999 µM) 47.3% | viability, T/C [2] 49.7% | viability, T/C (second compound 0.1 µM, first compound 0.000999 µM) 87.2% | viability, T/C (second compound 0.1 µM, first compound 0.00316 µM) 104% | viability, T/C (second compound 0.1 µM, first compound 0.00999 µM) 98% | viability, T/C [3] 64.3% | viability, T/C (second compound 0.1 µM, first compound 0.0999 µM) 50.9% | viability, T/C [4] 48.7% | viability, T/C (second compound 0.316 µM, first compound 0.000999 µM) 90.9% | viability, T/C (second compound 0.316 µM, first compound 0.00316 µM) 78.6% | viability, T/C (second compound 0.316 µM, first compound 0.00999 µM) 95.2% | viability, T/C [5] 65.1% | viability, T/C (second compound 0.316 µM, first compound 0.0999 µM) 48.3% | viability, T/C [6] 48.6% | viability, T/C (second compound 1 µM, first compound 0.000999 µM) 96.8% | viability, T/C (second compound 1 µM, first compound 0.00316 µM) 92.9% | viability, T/C (second compound 1 µM, first compound 0.00999 µM) 78.6% | viability, T/C [7] 69.8% | viability, T/C (second compound 1 µM, first compound 0.0999 µM) 56.5% | viability, T/C [8] 35.8% | viability, T/C (second compound 3.16 µM, first compound 0.000999 µM) 84.1% | viability, T/C (second compound 3.16 µM, first compound 0.00316 µM) 79.2% | viability, T/C (second compound 3.16 µM, first compound 0.00999 µM) 87.8% | viability, T/C [9] 72.5% | viability, T/C (second compound 3.16 µM, first compound 0.0999 µM) 46.1% | viability, T/C [10] 46.7% | viability, T/C (second compound 10 µM, first compound 0.000999 µM) 77.5% | viability, T/C (second compound 10 µM, first compound 0.00316 µM) 96.3% | viability, T/C (second compound 10 µM, first compound 0.00999 µM) 91.8% | viability, T/C [11] 69.8% | viability, T/C (second compound 10 µM, first compound 0.0999 µM) 61.4% | viability, T/C [12] 40.3%
0.0899 µM: IC50 (second compound 0.316 µM)

Cc1cccc(N(C)C(=O)C2C(O)CCN2c2nc(C)cc(C(F)(F)F)c2C#N)c1 (stereo unspecified) + Cc1[nH]c2ccc(F)cc2c1-c1nc2c3cccnc3c3ncccc3c2[nH]1
inactive: viability, T/C [1] 107% | viability, T/C [13] 95.2% | viability, T/C [2] 102% | viability, T/C [14] 79.5% | viability, T/C [15] 116% | viability, T/C [16] 108% | viability, T/C [3] 88.8% | viability, T/C [17] 92.2% | viability, T/C [4] 116% | viability, T/C [18] 82.8% | viability, T/C [19] 99.9% | viability, T/C [20] 107% | viability, T/C [5] 89.9% | viability, T/C [21] 92.9% | viability, T/C [6] 97.4% | viability, T/C [22] 98.3% | viability, T/C [23] 115% | viability, T/C [24] 114% | viability, T/C [7] 92.7% | viability, T/C [25] 101% | viability, T/C [8] 111% | viability, T/C [26] 103% | viability, T/C [27] 120% | viability, T/C [28] 93.1% | viability, T/C [9] 80.2% | viability, T/C [29] 96.1% | viability, T/C [10] 89.6% | viability, T/C [30] 84.1% | viability, T/C [31] 104% | viability, T/C [32] 96.4% | viability, T/C [11] 82.5% | viability, T/C [33] 86.8% | viability, T/C [12] 100% | viability, T/C [34] 86.9% | viability, T/C [35] 90.1% | viability, T/C [36] 96.9%
> 10 µM: IC50 (second compound 0.0316 µM) | IC50 (second compound 0.1 µM) | IC50 (second compound 0.316 µM) | IC50 (second compound 1 µM) | IC50 (second compound 3.16 µM) | IC50 (second compound 10 µM)

C=CCn1c(=O)c2cnc(Nc3ccc(N4CCN(C)CC4)cc3)nc2n1-c1cccc(C(C)(C)O)n1 + Cc1[nH]c2ccc(F)cc2c1-c1nc2c3cccnc3c3ncccc3c2[nH]1
> 10 µM: IC50 (second compound 0.0316 µM) | IC50 (second compound 0.1 µM) | IC50 (second compound 0.316 µM) | IC50 (second compound 1 µM) | IC50 (second compound 3.16 µM) | IC50 (second compound 10 µM)
inactive: viability, T/C [1] 103% | viability, T/C [13] 110% | viability, T/C [2] 167% | viability, T/C [14] 125% | viability, T/C [15] 157% | viability, T/C [16] 91.9% | viability, T/C [3] 112% | viability, T/C [17] 101% | viability, T/C [4] 127% | viability, T/C [18] 146% | viability, T/C [19] 183% | viability, T/C [20] 107% | viability, T/C [5] 101% | viability, T/C [21] 127% | viability, T/C [6] 126% | viability, T/C [22] 130% | viability, T/C [23] 202% | viability, T/C [24] 112% | viability, T/C [7] 89.3% | viability, T/C [25] 122% | viability, T/C [8] 120% | viability, T/C [26] 121% | viability, T/C [27] 194% | viability, T/C [28] 122% | viability, T/C [9] 75.5% | viability, T/C [29] 74.5% | viability, T/C [10] 85.2% | viability, T/C [30] 117% | viability, T/C [31] 122% | viability, T/C [32] 76.9% | viability, T/C [11] 70.5% | viability, T/C [33] 51.5% | viability, T/C [12] 85.7% | viability, T/C [34] 68.5% | viability, T/C [35] 105% | viability, T/C [36] 79.3%
